In article PMC10669046, “Probing the Proton-Gated ASIC Channels Using Tetraalkylammonium Ions” (Biomolecules, 2023):

What was measured:
ASIC2a = molecular target: T1, ASIC2a (Rattus norvegicus, UniProt Q62962); test: whole-cell patch clamp in transfected CHO cells; […], pH […], peak Idrug/Icontrol = […]; format: cell-based; conditions: pH 5, read-out: whole-cell patch clamp in transfected CHO cells, 5 mM, pH 5.0, peak Idrug/Icontr
T1 construct: gene Asic2
T1 sequence (Q62962 1-512): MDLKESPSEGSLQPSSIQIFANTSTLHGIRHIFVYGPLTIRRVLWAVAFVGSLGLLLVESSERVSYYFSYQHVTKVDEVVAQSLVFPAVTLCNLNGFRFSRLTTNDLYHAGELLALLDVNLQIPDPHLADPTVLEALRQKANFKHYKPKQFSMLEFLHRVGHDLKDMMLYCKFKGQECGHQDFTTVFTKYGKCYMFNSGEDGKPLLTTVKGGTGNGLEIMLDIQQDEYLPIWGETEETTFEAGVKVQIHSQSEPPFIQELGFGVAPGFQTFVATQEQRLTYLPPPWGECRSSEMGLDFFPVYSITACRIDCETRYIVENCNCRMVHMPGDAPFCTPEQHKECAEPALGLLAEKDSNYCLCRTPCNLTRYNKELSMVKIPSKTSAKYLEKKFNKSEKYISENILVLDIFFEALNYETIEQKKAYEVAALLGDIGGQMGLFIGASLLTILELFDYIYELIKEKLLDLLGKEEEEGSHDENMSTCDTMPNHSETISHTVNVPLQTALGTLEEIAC

ASIC1a [1] = molecular target: T2, ASIC1a (Rattus norvegicus, UniProt P55926); test: whole-cell patch clamp in transfected CHO cells; […], pH […], Idrug/Icontrol = […]; format: cell-based; conditions: pH 6.5, read-out: whole-cell patch clamp in transfected CHO cells, 5 mM, pH 6.5, Idrug/Icontrol =
T2 construct: gene Asic1
T2 sequence (P55926 1-526): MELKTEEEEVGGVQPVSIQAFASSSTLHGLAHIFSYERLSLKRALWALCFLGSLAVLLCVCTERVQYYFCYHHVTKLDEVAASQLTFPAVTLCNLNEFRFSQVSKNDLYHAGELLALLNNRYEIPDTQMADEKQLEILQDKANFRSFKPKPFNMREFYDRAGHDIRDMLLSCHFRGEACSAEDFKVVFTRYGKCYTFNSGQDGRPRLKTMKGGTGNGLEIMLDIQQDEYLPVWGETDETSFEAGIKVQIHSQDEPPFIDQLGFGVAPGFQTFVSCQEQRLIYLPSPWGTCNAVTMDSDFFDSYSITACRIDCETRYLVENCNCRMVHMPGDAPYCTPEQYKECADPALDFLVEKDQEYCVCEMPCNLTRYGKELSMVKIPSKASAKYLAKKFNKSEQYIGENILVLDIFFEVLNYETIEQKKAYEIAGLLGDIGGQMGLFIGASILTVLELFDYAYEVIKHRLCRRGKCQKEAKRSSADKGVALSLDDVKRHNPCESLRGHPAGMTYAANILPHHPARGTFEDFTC

ASIC1a [2] = molecular target: T2, ASIC1a; test: cell-based; conditions: CHO, read-out: whole-cell patch clamp in transfected CHO cells; 10 mM, voltage-dependent inhibi
ASIC3 = molecular target: T3, ASIC3 (Rattus norvegicus, UniProt O35240); test: cell-based; conditions: CHO, read-out: whole-cell patch clamp in transfected CHO cells; potentiation of the sustained c
T3 sequence (O35240 1-533): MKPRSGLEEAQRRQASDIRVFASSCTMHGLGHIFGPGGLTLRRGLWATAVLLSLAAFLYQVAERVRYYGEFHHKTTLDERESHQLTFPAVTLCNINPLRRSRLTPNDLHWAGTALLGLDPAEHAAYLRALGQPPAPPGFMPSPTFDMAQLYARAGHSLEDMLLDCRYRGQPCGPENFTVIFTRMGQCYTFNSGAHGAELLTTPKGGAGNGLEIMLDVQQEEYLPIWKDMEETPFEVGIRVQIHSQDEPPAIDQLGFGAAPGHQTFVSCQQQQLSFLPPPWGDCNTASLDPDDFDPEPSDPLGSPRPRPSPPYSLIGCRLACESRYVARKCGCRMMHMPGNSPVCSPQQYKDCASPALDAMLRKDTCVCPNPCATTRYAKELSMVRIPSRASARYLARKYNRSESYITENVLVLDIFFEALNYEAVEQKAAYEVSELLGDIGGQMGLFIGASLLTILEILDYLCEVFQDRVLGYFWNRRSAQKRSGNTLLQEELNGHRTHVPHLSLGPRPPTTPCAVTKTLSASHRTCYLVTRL

## CCCCC[N+](CCCCC)(CCCCC)CCCCC [TPtA, tetrapentylammonium]
ASIC2a
  activity at 5000 µM: 71 ± 18%
ASIC1a [1]
  remaining activity at 5000 µM: 41 ± 6%

## CC[N+](CC)(CC)CC [TEA, tetraethylammonium]
ASIC1a [2]
  activity at 10000 µM: 70 ± 13%

## CCCC[N+](CCCC)(CCCC)CCCC [TBA, tetrabutylammonium]
ASIC3
  activity at 1000 µM: 112 ± 8%
